Results from patent US20100087516A1, “ANTIBACTERIAL MACROLACTIN A THAT BACILLUS POLYFERMENTICUS KJS-2 PRODUCED IN” (priority 2007, published 2010).
In brackets after ≈: the same amount, converted by molar mass. Read-outs that look alike come from different tables or passages of the source.

What was measured:
[1] = tested on: vancomycin-resistant enterococci (VRE); conditions: cited from earlier work
[2] = tested on: methicillin-resistant Staphylococcus aureu (MRSA); conditions: cited from earlier work
Burkholderia cepacia = conditions: cited from earlier work
[3] = tested on: 11 VRE strains, clinically isolated; experiment: Minimal inhibitory concentration (MIC>90) in MH II medium; format: cell-based, vancomycin-resistant enterococci; conditions: for MIC: Enterococcus, VRE
Description: (§1) The MIC (minimal inhibitory concentration) against VRE and MRSA was measured to test antibiotic activity of Macrolactin A produced by Bacillus polyfermenticus KJS-2, which is the strain of the present invention, against the two strains. The strains used for the experiment were 11 VRE strains and 13 MRSA strains, which were clinically isolated. Each strain used for the experiment was cultured in MH II medium at 200 rpm for 6 hours at 37° C., the absorbance of the medium measured at OD600nm using a UV detector, and then 1 ml aliquot of the medium was spread over MH II agar medium and incubated for 16 hours at 37° C. The number of colonies formed on the agar medium after 16 hours of incubation was counted. Each strain used for experiment was cultured in MH II medium at 200 rpm for 6 hours at 37° C., and the absorbance of the medium was measured at OD600nm using a UV detector. The number of cells were calculated based on the ratio of the number of colonies to the absorbance of the medium, and measured by the above process. Each culture medium was diluted to the final cell concentration of 0.25*10^7 cfu/ml and Macrolactin A was dissolved in the solvent DMSO, while ampicillin, teycoplanin, vancomycin and methillin were dissolved in water. To measure the MIC of Macrolactin A or of the four antibiotics, the mixture of the materials listed in Table 5 and Macrolactin A or the mixture of the materials listed in Table 6 and each of the four antibiotics, respectively in a 500 μl eppendorff tub, was incubated at 200 rpm for 16 hours at 37° C., and then absorbance was measured by a UV/Visible Light detector at 600 nm using a Fluorescence Multi-Detection Reader.

[4] = tested on: 13 MRSA strains, clinically isolated; experiment: as above; format: cell-based, methicillin-resistant Staphylococcus aureus; conditions: for MIC: Staphylococcus aureus, MRSA
Description: as §1

VRE5 = experiment: Bioassay at a gradient of concentration on TSB agar medium; format: cell-based, vancomycin-resistant enterococci; conditions: solution 5 mg/ml in H2O

Molecule: CC1CCC/C=C/C=C/C(O)CC(O)C/C=C\C=C\C(OC(=O)CC(=O)O)C/C=C/C=C\C(=O)O1 (stereo not shown) [Malonyl-macrolactin A (MMA), Malonyl-macrolactin A]
- antibiotic activity against VRE [1]: excellent antibiotic activity
- antibiotic activity against MRSA [2]: excellent antibiotic activity
- antibiotic activity against Burkholderia cepacia (Burkholderia cepacia): excellent antibiotic activity

Molecule: Teicoplanin
- average MIC>90 ([3]; Average of the 11 VRE strains): 125 µg/mL
- MIC>90 ([3]; VRE1): 250 µg/mL
- MIC>90 ([3]; VRE2): 250 µg/mL
- MIC>90 ([3]; VRE3): 62.5 µg/mL
- MIC>90 ([3]; VRE4): 125 µg/mL
- MIC>90 ([3]; VRE5): 125 µg/mL
- MIC>90 ([3]; VRE6): 125 µg/mL
- MIC>90 ([3]; VRE7): 125 µg/mL
- MIC>90 ([3]; VRE9): 62.5 µg/mL
- MIC>90 ([3]; VRE10): 62.5 µg/mL
- MIC>90 ([3]; VRE914): 62.5 µg/mL
- MIC>90 ([3]; VRE915): 125 µg/mL
- average MIC>90 ([4]; Average of the 13 MRSA strains): 104.6 µg/mL
- MIC>90 ([4]; MRSA1): 250 µg/mL
- MIC>90 ([4]; MRSA2): 125 µg/mL
- MIC>90 ([4]; MRSA3): 125 µg/mL
- MIC>90 ([4]; MRSA4): 125 µg/mL
- MIC>90 ([4]; MRSA5): 125 µg/mL
- MIC>90 ([4]; MRSA6): 125 µg/mL
- MIC>90 ([4]; MRSA7): 250 µg/mL
- MIC>90 ([4]; MRSA8): 62.5 µg/mL
- MIC>90 ([4]; MRSA8*): 31.25 µg/mL
- MIC>90 ([4]; MRSA9): 15.63 µg/mL
- MIC>90 ([4]; MRSA10): 31.25 µg/mL
- MIC>90 ([4]; MRSA11): 31.25 µg/mL
- MIC>90 ([4]; MRSA11*): 62.5 µg/mL

Molecule: CN[C@H](CC(C)C)C(=O)N[C@H]1C(=O)N[C@@H](CC(N)=O)C(=O)N[C@H]2C(=O)N[C@H]3C(=O)N[C@H](C(=O)N[C@H](C(=O)O)c4cc(O)cc(O)c4-c4cc3ccc4O)[C@H](O)c3ccc(c(Cl)c3)Oc3cc2cc(c3O[C@@H]2O[C@H](CO)[C@@H](O)[C@H](O)[C@H]2O[C@H]2C[C@](C)(N)[C@H](O)[C@H](C)O2)Oc2ccc(cc2Cl)[C@H]1O [Vancomycin]
- MIC ([3]; read-out: MIC>90, VRE1): 500 µg/mL (≈ 345 µM)
- MIC ([3]; read-out: MIC>90, VRE2): 500 µg/mL (≈ 345 µM)
- MIC ([3]; read-out: MIC>90, VRE3): 125 µg/mL (≈ 86.3 µM)
- MIC ([3]; read-out: MIC>90, VRE4): 250 µg/mL (≈ 173 µM)
- MIC ([3]; read-out: MIC>90, VRE5): 250 µg/mL (≈ 173 µM)
- MIC ([3]; read-out: MIC>90, VRE6): 250 µg/mL (≈ 173 µM)
- MIC ([3]; read-out: MIC>90, VRE7): 250 µg/mL (≈ 173 µM)
- MIC ([3]; read-out: MIC>90, VRE9): 250 µg/mL (≈ 173 µM)
- MIC ([3]; read-out: MIC>90, VRE10): 125 µg/mL (≈ 86.3 µM)
- MIC ([3]; read-out: MIC>90, VRE914): 125 µg/mL (≈ 86.3 µM)
- MIC ([3]; read-out: MIC>90, VRE915): 250 µg/mL (≈ 173 µM)
- MIC ([3]; read-out: average MIC>90, Average of the 11 VRE strains): 261 µg/mL (≈ 180 µM)
- MIC ([4]; read-out: MIC>90, MRSA1): 250 µg/mL (≈ 173 µM)
- MIC ([4]; read-out: MIC>90, MRSA2): 125 µg/mL (≈ 86.3 µM)
- MIC ([4]; read-out: MIC>90, MRSA3): 125 µg/mL (≈ 86.3 µM)
- MIC ([4]; read-out: MIC>90, MRSA4): 125 µg/mL (≈ 86.3 µM)
- MIC ([4]; read-out: MIC>90, MRSA5): 125 µg/mL (≈ 86.3 µM)
- MIC ([4]; read-out: MIC>90, MRSA6): 250 µg/mL (≈ 173 µM)
- MIC ([4]; read-out: MIC>90, MRSA7): 250 µg/mL (≈ 173 µM)
- MIC ([4]; read-out: MIC>90, MRSA8): 125 µg/mL (≈ 86.3 µM)
- MIC ([4]; read-out: MIC>90, MRSA8*): 125 µg/mL (≈ 86.3 µM)
- MIC ([4]; read-out: MIC>90, MRSA9): 250 µg/mL (≈ 173 µM)
- MIC ([4]; read-out: MIC>90, MRSA10): 250 µg/mL (≈ 173 µM)
- MIC ([4]; read-out: MIC>90, MRSA11): 250 µg/mL (≈ 173 µM)
- MIC ([4]; read-out: MIC>90, MRSA11*): 31.2 µg/mL (≈ 21.6 µM)
- MIC ([4]; read-out: average MIC>90, Average of the 13 MRSA strains): 175 µg/mL (≈ 121 µM)
- inhibition of VRE5 on TSB agar medium (VRE5): not inhibited

Molecule: CC1(C)S[C@@H]2[C@H](NC(=O)[C@H](N)c3ccccc3)C(=O)N2[C@H]1C(=O)O [Ampicillin]
- MIC ([3]; Average of the 11 VRE strains, read-out: average MIC>90): 273 µg/mL (≈ 781 µM)
- MIC ([3]; VRE1, read-out: MIC>90): 250 µg/mL (≈ 715 µM)
- MIC ([3]; VRE2, read-out: MIC>90): 250 µg/mL (≈ 715 µM)
- MIC ([3]; VRE3, read-out: MIC>90): 250 µg/mL (≈ 715 µM)
- MIC ([3]; VRE4, read-out: MIC>90): 250 µg/mL (≈ 715 µM)
- MIC ([3]; VRE5, read-out: MIC>90): 250 µg/mL (≈ 715 µM)
- MIC ([3]; VRE6, read-out: MIC>90): 250 µg/mL (≈ 715 µM)
- MIC ([3]; VRE7, read-out: MIC>90): 250 µg/mL (≈ 715 µM)
- MIC ([3]; VRE9, read-out: MIC>90): 250 µg/mL (≈ 715 µM)
- MIC ([3]; VRE10, read-out: MIC>90): 250 µg/mL (≈ 715 µM)
- MIC ([3]; VRE914, read-out: MIC>90): 250 µg/mL (≈ 715 µM)
- MIC ([3]; VRE915, read-out: MIC>90): 500 µg/mL (≈ 1430 µM)
- MIC ([4]; Average of the 13 MRSA strains, read-out: average MIC>90): 212 µg/mL (≈ 605 µM)
- MIC ([4]; MRSA1, read-out: MIC>90): 250 µg/mL (≈ 715 µM)
- MIC ([4]; MRSA2, read-out: MIC>90): 250 µg/mL (≈ 715 µM)
- MIC ([4]; MRSA3, read-out: MIC>90): 250 µg/mL (≈ 715 µM)
- MIC ([4]; MRSA4, read-out: MIC>90): 250 µg/mL (≈ 715 µM)
- MIC ([4]; MRSA5, read-out: MIC>90): 250 µg/mL (≈ 715 µM)
- MIC ([4]; MRSA6, read-out: MIC>90): 250 µg/mL (≈ 715 µM)
- MIC ([4]; MRSA7, read-out: MIC>90): 250 µg/mL (≈ 715 µM)
- MIC ([4]; MRSA8*, read-out: MIC>90): 125 µg/mL (≈ 358 µM)
- MIC ([4]; MRSA8, read-out: MIC>90): 125 µg/mL (≈ 358 µM)
- MIC ([4]; MRSA9, read-out: MIC>90): 125 µg/mL (≈ 358 µM)
- MIC ([4]; MRSA10, read-out: MIC>90): 250 µg/mL (≈ 715 µM)
- MIC ([4]; MRSA11*, read-out: MIC>90): 250 µg/mL (≈ 715 µM)
- MIC ([4]; MRSA11, read-out: MIC>90): 125 µg/mL (≈ 358 µM)
